Source: ChEMBL document CHEMBL3507680, “University of Dundee, Gates Library screen for HepG2 cell viability”

Test: Human HepG2 cell viability assay in 384 well format
Assay type: toxicity, cell-based
Set-up: dose 125 nL, time 70.5 hour; concentration not given beside the values
Details: HepG2 cells, read-out: Inhibition

CN1CCN(C2CCN(Cc3cn4ccccc4n3)CC2)C1=O
cytotoxicity at 70.5 h: 19.5%

Cc1cccn2cc(CN3CCC(N4CCN(C)C4=O)CC3)nc12
cytotoxicity at 70.5 h: -6.74%

COC(=O)c1ncccc1N1CCC(C(O)c2ccccc2)CC1 (centres undefined)
cytotoxicity at 70.5 h: -6.81%

O=C(NCc1nnc2n1CCC2)c1cccc(Br)c1
cytotoxicity at 70.5 h: -9.88%

Cc1cc(C(=O)NC(C)Cc2cccc(Cl)c2)n(C)n1 (centres undefined)
cytotoxicity at 70.5 h: -2.61%

CC(NC(=O)Nc1ccc(-c2csnn2)cc1)C(=O)NC(C)(C)C (centres undefined)
cytotoxicity at 70.5 h: -9.46%

N#Cc1cc(S(N)(=O)=O)ccc1N1CCN(c2ccccc2)CC1
cytotoxicity at 70.5 h: 1.86%

Oc1cccc(CNCc2ccc(-n3cncn3)nc2)c1
cytotoxicity at 70.5 h: 0.561%

CN1CCN(c2ccc(F)cc2NC(=O)NCCn2ccnc2)CC1
cytotoxicity at 70.5 h: -0.0867%

N#Cc1ccc(CNCCc2cc(F)cc3c2OCOC3)cc1
cytotoxicity at 70.5 h: 7.73%

CS(=O)(=O)NC(=O)c1ccn(-c2cccc(Br)c2)n1
cytotoxicity at 70.5 h: -3.84%

CC(C)(C)NC(=O)CNc1ccc(Br)cn1
cytotoxicity at 70.5 h: 0.762%

CCN1CCN(c2ccccc2NC(=O)NCc2ccon2)CC1
cytotoxicity at 70.5 h: -0.39%

CCCn1ccnc1-c1cccc(NC(=O)[C@H]2CCC(=O)N2)c1
cytotoxicity at 70.5 h: 1.18%

Fc1cc(CCNc2ccc3nccn3n2)c2c(c1)COCO2
cytotoxicity at 70.5 h: 5.74%

Cc1nc(CNC(=O)Nc2cc(F)ccc2N2CCN(C)CC2)no1
cytotoxicity at 70.5 h: -2.28%

CC1CC(NS(=O)(=O)c2ccc(C(F)(F)F)nc2)C1 (centres undefined)
cytotoxicity at 70.5 h: 26.5%

CCCn1ccnc1-c1cccc(NC(=O)C2CCCOC2)c1 (centres undefined)
cytotoxicity at 70.5 h: -5.58%

CN(C)CCN(Cc1cccc(F)c1)C(=O)c1ccn(C)c(=O)c1
cytotoxicity at 70.5 h: -2.08%

CC(C)(C)CN(CCC#N)C(=O)c1cccc(CC#N)c1
cytotoxicity at 70.5 h: -3.08%

OCc1cccc(OCc2ccon2)c1
cytotoxicity at 70.5 h: -3.01%

CN(CCSc1nncn1C(C)(C)C)c1ccccc1
cytotoxicity at 70.5 h: 31%

N#CCCN(Cc1ccccn1)C(=O)c1cccc(CN2CCCC2)c1
cytotoxicity at 70.5 h: -1.86%

CC(C#N)(NC(=O)c1ccc(C#N)cc1)C1CC1 (centres undefined)
cytotoxicity at 70.5 h: -0.776%

CC(NC(=O)CNc1cc2c(cc1Cl)NC(=O)CO2)c1ccco1 (centres undefined)
cytotoxicity at 70.5 h: 14.6%

CCOc1cc(CNC(=O)CNC(=O)CC2CCCCC2)ccn1
cytotoxicity at 70.5 h: -6.29%

COc1ccc2cc(C(=O)NCCc3nc(C)no3)[nH]c2c1
cytotoxicity at 70.5 h: 5.04%

CCc1ccc(NC(C(N)=O)c2ccc(F)cc2)cc1 (centres undefined)
cytotoxicity at 70.5 h: -5.1%

COc1ccc(-c2nc(CCNC(=O)NCC3CCOC3)co2)cc1 (centres undefined)
cytotoxicity at 70.5 h: -11.8%

CC(=O)NCCCNC(=O)N(C)C(C)Cc1ccc(Cl)cc1 (centres undefined)
cytotoxicity at 70.5 h: -8.06%

CC(O)(CNC(=O)NCCc1ccc2c(c1)CCO2)c1ccsc1 (centres undefined)
cytotoxicity at 70.5 h: 1.66%

NC(=O)C1CCCN1C(=O)c1cc(C2CC2)nc2ccc(F)cc12 (centres undefined)
cytotoxicity at 70.5 h: 18.9%

COc1ccc(Cl)cc1CCNC(=O)NCc1noc(C)n1
cytotoxicity at 70.5 h: -3.63%

COc1ccccc1OCC(=O)NS(=O)(=O)c1cccnc1
cytotoxicity at 70.5 h: -8.19%

Cc1noc(CCCC(=O)NCCc2cc3ccccc3[nH]2)n1
cytotoxicity at 70.5 h: -6.92%

COc1ccc(Cl)cc1CCNC(=O)NCc1cnn(C)c1C
cytotoxicity at 70.5 h: -4.39%

N#CC(NC(=O)CC(F)(F)F)c1ccsc1 (centres undefined)
cytotoxicity at 70.5 h: -7.23%

CC(NC(=O)CCn1cccn1)c1ccc(-n2ccnn2)cc1 (centres undefined)
cytotoxicity at 70.5 h: 15.4%

CCN(CC)C1CCN(C(=O)NCc2cccc(NC(C)=O)c2)C1 (centres undefined)
cytotoxicity at 70.5 h: -6.18%

COc1cc(C)ccc1OCCC(=O)N1CCC(N2CC=CC2)C1 (centres undefined)
cytotoxicity at 70.5 h: -2.75%

CC(C)Oc1ccc(CN)c(C(F)(F)F)c1
cytotoxicity at 70.5 h: -7.67%

CCCS(=O)(=O)N1CCN(CCCO)CC1
cytotoxicity at 70.5 h: 0.836%

Cc1cnn(C2CN(CCOc3ccc(C#N)cc3)C2)c1
cytotoxicity at 70.5 h: -5.99%

Cc1cn2nc(N(C)C3CCCN(c4cccnn4)C3)sc2n1 (centres undefined)
cytotoxicity at 70.5 h: -11.5%

CC(NC(=O)N1CCCC1)c1ccc(S(N)(=O)=O)cc1 (centres undefined)
cytotoxicity at 70.5 h: -13%

CN(C)c1ccc(C(=O)Nc2ccn(CC(N)=O)n2)cn1
cytotoxicity at 70.5 h: -8.63%

CN(C)c1ccc(C(=O)Nc2ccn(CCc3ccncc3)n2)cc1
cytotoxicity at 70.5 h: 15%

Cc1nc2n(n1)CC(NCc1ccc(Cl)c3cccnc13)CC2 (centres undefined)
cytotoxicity at 70.5 h: -8.23%

Cc1cc(C[S+]([O-])Cc2ccccc2F)no1 (centres undefined)
cytotoxicity at 70.5 h: 16.6%

Cc1ccc(N2CCCC(N(C)c3nn4cc(C)nc4s3)C2)nn1 (centres undefined)
cytotoxicity at 70.5 h: -3.89%

COC(=O)NCC(=O)NC1(C)CCc2ccccc2C1 (centres undefined)
cytotoxicity at 70.5 h: -8.98%

O=C1CN(c2ccc(C(=O)N3CCc4ccccc43)cn2)CCN1
cytotoxicity at 70.5 h: -6.79%

CN(C)c1ccc(C(=O)Nc2ccn(CCc3ccncc3)n2)cn1
cytotoxicity at 70.5 h: 0.589%

CC(C)Cn1ncc(C(=O)O)c1C1CC1
cytotoxicity at 70.5 h: -5.02%

CC(CC(=O)c1ccco1)NC(=O)c1ccon1 (centres undefined)
cytotoxicity at 70.5 h: -8.03%

CCOc1ccc(Cl)cc1CCNC(=O)Cn1ccccc1=O
cytotoxicity at 70.5 h: -3.35%

Cc1cccn2cc(CNS(=O)(=O)N3CCOCC3)nc12
cytotoxicity at 70.5 h: -5.24%

CC(NC(=O)N1CCC1)c1ccc(S(C)(=O)=O)cc1 (centres undefined)
cytotoxicity at 70.5 h: -5.1%

COC(=O)c1ccc(NC(=O)CCc2ccco2)cc1
cytotoxicity at 70.5 h: -8.07%
